Measured values reported in patent US12617770B2, “IRAK inhibitor and preparation method therefor and use thereof” (WUHAN CREATERNA SCIENCE AND TECHNOLOGY CO., LTD., priority 2019, dated 2026).

Target: T1, CYP3A4 (Homo sapiens, UniProt P08684)
T1 construct: The test compounds were co-incubated with the human liver microsomes and a probe substrate midazolam (CYP3A4); tissue Corning (USA); host or cells: mixed (pooled) human liver microsomes
Experiment: Time-dependent inhibition (TDI) of CYP3A4 in human liver microsomes
Format: in vitro ADME
Conditions: probe substrate midazolam
Protocol: This study was intended to investigate the time-dependent inhibition effect of the compounds on CYP3A4 in human P450 superfamily. The mixed human liver microsomes used in this assay were purchased from Corning (USA).
The test compounds were co-incubated with the human liver microsomes and a probe substrate midazolam (CYP3A4), and the concentration of the test compounds was set at 30 μM. The reaction was initiated by adding coenzyme NADPH, and terminated by adding acetonitrile dossolved with internal standard in advance. After the proteins were precipitated, the supernatant was centrifuged. The characteristic metabolite 1-hydroxy-midazolam (CYP3A4) in the supernatant was analyzed by LC-MS/MS. The influence of the test compounds on production of the characteristic metabolites was finally analyzed on the basis of the data obtained. A selective inhibitor (verapamil for CYP3A4-M) was used as positive control.

T1 sequence (P08684 whole entry): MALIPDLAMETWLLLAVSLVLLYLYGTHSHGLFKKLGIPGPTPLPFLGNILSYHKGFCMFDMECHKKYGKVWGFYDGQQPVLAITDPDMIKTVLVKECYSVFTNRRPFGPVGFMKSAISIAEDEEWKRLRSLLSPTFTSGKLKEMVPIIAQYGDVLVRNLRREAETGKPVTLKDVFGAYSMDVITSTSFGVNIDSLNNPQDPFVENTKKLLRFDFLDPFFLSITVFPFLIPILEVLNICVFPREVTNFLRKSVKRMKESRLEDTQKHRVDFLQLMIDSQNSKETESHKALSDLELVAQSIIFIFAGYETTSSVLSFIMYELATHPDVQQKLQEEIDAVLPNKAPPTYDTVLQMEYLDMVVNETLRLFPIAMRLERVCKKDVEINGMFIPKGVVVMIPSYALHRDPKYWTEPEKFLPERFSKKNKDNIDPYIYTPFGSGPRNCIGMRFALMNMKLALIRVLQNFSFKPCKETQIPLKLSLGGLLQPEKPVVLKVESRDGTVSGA

## COc1cc2nn([C@H]3CC[C@H](O)CC3)cc2cc1NC(=O)c1cccc(C2CC2)[n+]1[O-] [Compound 014, 2-cyclopropyl-6-((2-((1r,4r)-4-hydroxycyclohexyl)-6-methoxy-2H-indazol-5-yl)carbamoyl)pyridine 1-oxide]
  TDI (3A4, 30 μM): +3.85%
